Results taken from ChEMBL document CHEMBL1201862, “PubChem BioAssay data set” (2004).
Active and inactive are the calls of the source.

Key:
[1] = cells; type: functional, cell-based
[2] = cytotoxicity in HPDE-C7 cells, cell-based, fluorescence, HTS (AID 430); type: functional; conditions: Homo sapiens
[3] = cells; type: functional, cell-based; remark: listed apart in the source
[4] = cytotoxicity in KRAS-transformed pancreatic duct cells, primary screen, cell-based, fluorescence, HTS (AID 431); type: functional; conditions: Homo sapiens;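 also: cell line used: HPDE-C7K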
[5] = Luminescence Cell-Based Dose Retest to Confirm Inhibitors of Cancer Stem Cells. [Related pubchem assays (depositor defined):AID2717, AID2721]; type: functional; conditions: Homo sapiens
[6] = inhibitors of HIV Env-driven cell fusion, dose response, cherry-pick (AID 652057); type: functional, cell-based
[7] = CEM21 lymphoblast cell cytotoxicity, dose response, cytotoxicity control for viral fusion inhibitor project, CellTiter-Glo luminescence, cherry-picked (AID 652042); type: functional, cell-based;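 also: potency for signal decrease meaning cytotoxicity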
[8] = ZM109 Env clade C HIV-1 fusion inhibitors, dose response, HeLa effector, CEM target cells, luciferase, cherry-pick (AID 652058); type: functional, cell-based
[9] = test system: Streptococcus sp. 'group A'; experiment: growth inhibition of control SK(-) GAS strain, dose response, counter-screen for streptokinase expression inhibitor project, luminescence, kanamycin, BacTiterGlo, confirmation (AID 1900); type: functional, organism-based
[10] = test system: Streptococcus; experiment: Group A Streptococcus viability loss, dose response, counter-screen for streptokinase expression inhibitor project, luminescence, BacTiterGlo (AID 1915); type: functional, organism-based;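 also: potency for reduction of bacterial viability or growth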
[11] = molecular target: T1, Streptokinase A (Streptococcus pyogenes serotype M1, UniProt P10520); experiment: S. pyogenes streptokinase expression inhibitors, potency, dose response, plasminogen activation absorbance, OD405 (AID 1914); type: functional, Streptococcus pyogenes M1 GAS;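 also: secreted streptokinase activity via plasminogen activation per viability signal from cell pellet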
T1 sequence (P10520 whole entry): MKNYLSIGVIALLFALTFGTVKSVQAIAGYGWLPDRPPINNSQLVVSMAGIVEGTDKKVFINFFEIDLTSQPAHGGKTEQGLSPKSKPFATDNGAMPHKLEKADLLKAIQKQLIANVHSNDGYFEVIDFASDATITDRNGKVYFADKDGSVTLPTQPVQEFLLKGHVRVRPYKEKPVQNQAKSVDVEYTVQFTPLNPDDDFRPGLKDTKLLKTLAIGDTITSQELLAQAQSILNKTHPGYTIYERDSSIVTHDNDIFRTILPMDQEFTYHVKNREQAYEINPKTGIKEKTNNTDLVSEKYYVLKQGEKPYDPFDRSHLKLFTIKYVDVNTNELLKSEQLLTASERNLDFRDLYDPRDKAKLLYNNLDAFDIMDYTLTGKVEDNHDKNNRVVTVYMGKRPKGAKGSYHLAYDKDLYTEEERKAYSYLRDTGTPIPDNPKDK

[12] = cytotoxicity toward HT-29 cells – cell-based, CellTiter-Glo luminescence, IC50, dose response (AID 1117330); type: functional
[13] = HCT116 cell viability decrease, GSK3B pretreatment – CellTiter-Glo, IC50, dose response (AID 1117339); type: functional; conditions: HCT-116
[14] = RKO cell viability reduction, dose response, CellTiter-Glo luminescence (AID 1117322); type: functional
[15] = cytotoxicity toward Colo320 cells – cell-based, CellTiter-Glo luminescence, IC50, dose response (AID 1117334); type: functional; conditions: COLO 320
[16] = SNU-C1 cell viability reduction, dose response, CellTiter-Glo luminescence (AID 1117323); type: functional, cell-based
[17] = cytotoxicity toward HCT116 cells – cell-based, CellTiter-Glo luminescence, IC50, dose response (AID 1117332); type: functional; conditions: HCT-116
[18] = Concentration-dependent survival of SW480 colon cancer line, luminescence detection with CellTiter-Glo, half-maximal inhibitory concentration (AID 1117338); type: functional
[19] = CellTiter-Glo luminescent dose response of DLD-1 viability loss (AID 1117352); type: functional
[20] = molecular target: T2, Oxysterols receptor LXR-beta (Homo sapiens, UniProt P55055); type: functional, cell-based;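 also: agonist activity at LXR measured by a cell-based luminescence readout across a dose range, run as a counterscreen for daf-12 agonists; HEK293 cells with Gal4-LXR fusion and GAL4-driven luciferase reporter; potency for activation of Gal4-LXR reporter so compounds are agonists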
T2 sequence (P55055 whole entry): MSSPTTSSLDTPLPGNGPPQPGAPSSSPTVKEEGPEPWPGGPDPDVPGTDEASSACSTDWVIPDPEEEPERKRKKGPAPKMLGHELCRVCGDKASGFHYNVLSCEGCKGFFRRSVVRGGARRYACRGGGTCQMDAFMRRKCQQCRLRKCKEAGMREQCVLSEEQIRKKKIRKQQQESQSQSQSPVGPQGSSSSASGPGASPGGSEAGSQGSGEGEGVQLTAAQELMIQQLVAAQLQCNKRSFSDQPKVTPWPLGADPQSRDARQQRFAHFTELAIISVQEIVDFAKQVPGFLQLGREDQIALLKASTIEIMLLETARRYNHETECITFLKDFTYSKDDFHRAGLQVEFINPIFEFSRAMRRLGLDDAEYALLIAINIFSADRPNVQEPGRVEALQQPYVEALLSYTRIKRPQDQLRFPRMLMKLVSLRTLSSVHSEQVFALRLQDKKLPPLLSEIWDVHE

[21] = test system: HEK293; experiment: inhibitors of LMP1-driven NF-kB reporter, dose response, cell-based, HEK293, luciferase, cherry-pick (AID 588343); type: functional; conditions: Homo sapiens
[22] = LGR2 antagonists, dose response, cell-based, HEK293, CRE-luciferase reporter, cherry pick, set 2 (AID 743343); type: functional;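 also: transfected cells were stimulated with diluted bursicon conditioned medium after compound addition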
[23] = MC4R antagonists, dose response, counter-screen for LGR2 antagonist project, cell-based, plate reader, cherry pick (AID 743444); type: functional;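 also: transfected HEK 293 cells stimulated with alpha-MSH peptide; potency of inhibitors of the alpha-MSH evoked signal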
[24] = HEp-2 cell cytotoxicity, dose response, cytotoxicity control for RSV inhibitor project, HTS (AID 2410); type: functional; conditions: human respiratory syncytial virus

Q: For `Cc1sc2ncnc(Sc3nnnn3-c3ccc(Cl)cc3)c2c1C`, which EC50 [1] is on record?
A: > 350 µM (not active)

Q: What about the EC50 [2] of the same compound?
A: 4.61 µM (active)

Q: What about the EC50 [3] of the same compound?
A: > 350 µM (not active)

Q: And the EC50 [4]?
A: 5.19 µM (active)

Q: Which results are given for `CN1CC(c2ccccc2)C2(SC(=S)N(Cc3ccco3)C2=O)C12C(=O)Nc1ccccc12` (centres undefined)?
A: AC50 [5]: 4.4 µM (active); AC50 [6]: 17.6 µM (active); AC50 [7]: 20.3 µM (active); AC50 [8]: 18.4 µM (active)

Q: For `CCCOC(=O)c1ccc(Oc2c(C)n[nH]c2-c2ccc(OC)cc2O)cc1`, which EC50 [9] is on record?
A: 14.1 µM (active)

Q: What about the EC50 [10] of the same compound?
A: 28.5 µM (active)

Q: And the EC50 [2]?
A: 12.2 µM (active)

Q: And the EC50 [11]?
A: > 150 µM (not active)

Q: What about the EC50 [4] of the same compound?
A: 6.36 µM (active)

Q: Which results are given for `C=CC(C)(O)CCC=C(C)CCC=C(C)C` (centres undefined)?
A: IC50 [12]: > 20 µM (inactive); IC50 [13]: > 20 µM (inactive); IC50 [14]: > 20 µM (inactive); IC50 [15]: 10.3 µM (inactive); IC50 [16]: > 20 µM (inactive); IC50 [17]: > 20 µM (inactive); IC50 [18]: > 20 µM (inactive); IC50 [19]: > 20 µM (inactive)

Q: For `CC/C(=N\NC(=O)c1ccoc1C)c1ccc(C)o1`, which EC50 [20] is on record?
A: > 67.5 µM (inactive)

Q: For `O=C(CN1C(=O)c2ccccc2S1(=O)=O)c1ccccc1F`, which AC50 [21] is on record?
A: 3.69 µM (active)

Q: What about the AC50 [22] of the same compound?
A: 2.28 µM (active)

Q: And the AC50 [23]?
A: 4.05 µM (active)

Q: For `CCN(CC)S(=O)(=O)c1cc(C(=O)OCC(=O)Nc2ccc(-c3nc4ccc(C)cc4s3)cc2)ccc1F`, which CC50 [24] is on record?
A: 11.4 µM (active)

Q: And the AC50 [22]?
A: 3.17 µM (active)

Q: And the EC50 [20]?
A: > 67.5 µM (inactive)

Q: And the AC50 [23]?
A: 3.11 µM (active)
